Measured values reported in PMC11581222, “Inhibition of CCl4-induced liver inflammation and fibrosis by a NEU3 inhibitor” (PLOS ONE, 2024).
Where two headings read alike, the source gives them in different places.

Experiments:
Adrenergic β2 = Adrenergic β2 (Homo sapiens, UniProt P07550); assay: Eurofins radioligand receptor binding inhibition; parameters: dose or concentration left out as unconfirmed
Adrenergic α1B = Adrenergic α1B (Rattus norvegicus, UniProt P15823); assay: Eurofins radioligand receptor binding inhibition; conditions: 10 μM 2AP
Histamine H1 = Histamine H1 (Homo sapiens, UniProt P35367); assay: Eurofins radioligand receptor binding inhibition; conditions: 10 μM 2AP
CYP2C19 = CYP2C19 (Homo sapiens, UniProt P33261); assay: Eurofins CYP450 inhibition, 3-Cyano-7-ethoxycoumarin substrate; type: in vitro ADME; conditions: recombinant CYP2C19, probe 3-cyano-7-ethoxycoumarin, 10 μM 2AP
28 receptors = assay: Eurofins panel of 28 receptors, inhibition of binding; conditions: 10 μM 2AP
GABAA Flunitrazepam = assay: Eurofins radioligand receptor binding inhibition; conditions: 10 μM 2AP
Adrenergic α2A = Adrenergic α2A (Homo sapiens, UniProt P08913); assay: Eurofins radioligand receptor binding inhibition; conditions: 10 μM 2AP
Cannabinoid CB1 = Cannabinoid CB1 (Homo sapiens, UniProt P21554); assay: Eurofins radioligand receptor binding inhibition; parameters: dose or concentration left out as unconfirmed
Sodium Channel, Site 2 = assay: Eurofins radioligand receptor binding inhibition; conditions: 10 μM 2AP
Potassium Channel [KATP] = assay: Eurofins radioligand receptor binding inhibition; conditions: 10 μM 2AP
CYP2D6 = CYP2D6 (Homo sapiens, UniProt P10635); assay: Eurofins CYP450 inhibition, 3-Cyano-7-ethoxycoumarin substrate; type: in vitro ADME; conditions: recombinant CYP2D6, probe 3-cyano-7-ethoxycoumarin, 10 μM 2AP
[1] = biological target: Nicotinic Acetylcholine α3β4 (Homo sapiens, UniProt P30926+P32297); assay: Eurofins radioligand receptor binding inhibition; conditions: 10 μM 2AP
[2] = tested on: bleomycin-induced pulmonary fibrosis; conditions: cited from earlier work; for pulmonary fibrosis: injections, male mice
Prostanoid EP4 = Prostanoid EP4 (Homo sapiens, UniProt P35408); assay: Eurofins radioligand receptor binding inhibition; conditions: 10 μM 2AP
CYP2C9 = CYP2C9 (Homo sapiens, UniProt P11712); assay: Eurofins CYP450 inhibition, 3-Cyano-7-ethoxycoumarin substrate; type: in vitro ADME; conditions: recombinant CYP2C9, probe 3-cyano-7-ethoxycoumarin, 10 μM 2AP
[3] = tested on: Calcium Channel L-Type, Dihydropyridine; assay: Eurofins radioligand receptor binding inhibition; conditions: 10 μM 2AP
CYP3A4 = CYP3A4 (Homo sapiens, UniProt P08684); assay: Eurofins CYP450 inhibition, 7-Benzyloxy-4-(trifluoromethyl)-coumarin substrate; type: in vitro ADME; conditions: recombinant CYP3A4, probe 7-benzyloxy-4-(trifluoromethyl)-coumarin, 10 μM 2AP
[4] = biological target: Nicotinic Acetylcholine α1, Bungarotoxin (Homo sapiens, UniProt P02708+P07510+Q07001); assay: biochemical; type: binding; parameters: dose or concentration left out as unconfirmed
hERG potassium channel = hERG potassium channel (Homo sapiens, UniProt Q12809); assay: Eurofins radioligand receptor binding inhibition; conditions: 10 μM 2AP
Imidazoline I2, Central = assay: Eurofins radioligand receptor binding inhibition; conditions: 10 μM 2AP
Adrenergic α1A = Adrenergic α1A (Rattus norvegicus, UniProt P43140); assay: Eurofins radioligand receptor binding inhibition; conditions: 10 μM 2AP
Adenosine A2A = Adenosine A2A (Homo sapiens, UniProt P29274); assay: Eurofins radioligand receptor binding inhibition; conditions: 10 μM 2AP
Dopamine D2S = Dopamine D2S (Homo sapiens, UniProt P14416); assay: Eurofins radioligand receptor binding inhibition; parameters: dose or concentration left out as unconfirmed
Opiate μ (OP3, MOP) = Opiate μ (OP3, MOP) (Homo sapiens, UniProt P35372); assay: Eurofins radioligand receptor binding inhibition; parameters: dose or concentration left out as unconfirmed
Aromatase / CYP19A1 = Aromatase / CYP19A1 (Homo sapiens, UniProt P11511); assay: Eurofins CYP450 inhibition, dibenzyl fluorescein substrate; type: biochemical; conditions: 10 μM 2AP
Glutamate = assay: Eurofins radioligand receptor binding inhibition; conditions: 10 μM 2AP
Adrenergic β1 = Adrenergic β1 (Homo sapiens, UniProt P08588); assay: Eurofins radioligand receptor binding inhibition; conditions: 10 μM 2AP
CYP2B6 = CYP2B6 (Homo sapiens, UniProt P20813); assay: Eurofins CYP450 inhibition, 3-Cyano-7-ethoxycoumarin substrate; type: in vitro ADME; conditions: recombinant CYP2B6, probe 3-cyano-7-ethoxycoumarin, 10 μM 2AP
human recombinant NEU3 = tested on: human recombinant NEU3; parameters: method as in PMID 33144389; conditions: cited from earlier work
Norepinephrine (NET) = Norepinephrine (NET) (Homo sapiens, UniProt P23975); assay: Eurofins radioligand receptor binding inhibition; conditions: 10 μM 2AP
Procedure: (§1) CYP450 enzymes and a panel of receptors were assessed for inhibition by 10 μM 2AP using HitProfilingScreen + CYP450 LeadHunter Panel at Eurofins (Eurofins Panlabs Discovery Services, New Taipei City, Taiwan). Briefly, human recombinant CYP450 enzymes were preincubated at 37°C for 15 minutes with 10 μM 2AP. Enzyme activity was assessed by cleavage of the CYP450 fluorogenic substrates dibenzyl fluorescein (aromatase / CYP19A1, CYP2C8), 3-Cyano-7-ethoxycoumarin (CYP1A2, CYP2B6, CYP2C19, CYP2C9, and CYP2D6), or 7-Benzyloxy-4-(trifluoromethyl)-coumarin (CYP3A4), as described previously. Inhibition of receptor binding was assessed using a panel of receptors expressed on cell lines or using tissue extracts and preincubated at 25°C for 30–120 minutes with 10 μM 2AP. Cells or tissue extracts were then incubated with radiolabeled specific ligands a described (https://www.eurofinsdiscovery.com/catalog/hitprofilingscreen-cyp450-leadhunter-panel-tw/PP115) and inhibition of binding was reported (S2 Table).

[5] = biological target: Serotonin (5-Hydroxytryptamine) 5-HT2B (Homo sapiens, UniProt P41595); assay: Eurofins radioligand receptor binding inhibition; conditions: 10 μM 2AP
Procedure: as §1

CYP2C8 = CYP2C8 (Homo sapiens, UniProt P10632); assay: Eurofins CYP450 inhibition, dibenzyl fluorescein substrate; type: in vitro ADME; conditions: recombinant CYP2C8, probe dibenzyl fluorescein, 10 μM 2AP
Dopamine D1 = Dopamine D1 (Homo sapiens, UniProt P21728); assay: Eurofins radioligand receptor binding inhibition; parameters: dose or concentration left out as unconfirmed
Sigma σ1 = Sigma σ1 (Homo sapiens, UniProt Q99720); assay: Eurofins radioligand receptor binding inhibition; conditions: 10 μM 2AP
CYP1A2 = CYP1A2 (Homo sapiens, UniProt P05177); assay: Eurofins CYP450 inhibition, 3-Cyano-7-ethoxycoumarin substrate; type: in vitro ADME; conditions: recombinant CYP1A2, probe 3-cyano-7-ethoxycoumarin, 10 μM 2AP
Procedure: as §1

[6] = tested on: CCl4-induced liver inflammation and fibrosis; conditions: for body weight, CCl4-induced weight loss: 1 mg/kg 2AP i.p. daily from day 21
Muscarinic M3 = Muscarinic M3 (Homo sapiens, UniProt P20309); assay: Eurofins radioligand receptor binding inhibition; conditions: 10 μM 2AP
[7] = tested on: aromatase/CYP19A1, CYP2C8, CYP1A2, CYP2B6, CYP2C19, CYP2C9, CYP2D6 and CYP3A4 (mean over 8 enzymes); assay: Eurofins CYP450 panel, mean over 8 enzymes; type: in vitro ADME; conditions: human, recombinant CYP450 enzymes; 10 μM 2AP; mean over 8 CYP450 enzymes; read-out: percent inhibition of CYP450 enzymes, mean ± SD, n = 8
Adenosine A1 = Adenosine A1 (Homo sapiens, UniProt P30542); assay: Eurofins radioligand receptor binding inhibition; parameters: dose or concentration left out as unconfirmed
GABAA Muscimol = assay: Eurofins radioligand receptor binding inhibition; conditions: 10 μM 2AP
Muscarinic M2 = Muscarinic M2 (Homo sapiens, UniProt P08172); assay: Eurofins radioligand receptor binding inhibition; parameters: dose or concentration left out as unconfirmed
mouse recombinant NEU3 = tested on: mouse recombinant NEU3; parameters: method as in PMID 33144389; conditions: pH 6.9, read-out: IC50, inhibition of release of active TGF-β1 from human latent TGF-β1; cited from earlier work
[8] = tested on: high fat diet (HFD)-induced liver inflammation, weight gain and steatosis; parameters: method as in PMID 33039353; conditions: injections, cited from earlier work
[9] = tested on: MCD diet-induced liver fibrosis; parameters: method as in PMID 33378413; conditions: cited from earlier work
[10] = CCl4+2AP vs CCl4, male and female mice
[11] = treatments vs control (oil) mice

Dopamine D2S, sequence (P14416 1-414 isoform P14416-2): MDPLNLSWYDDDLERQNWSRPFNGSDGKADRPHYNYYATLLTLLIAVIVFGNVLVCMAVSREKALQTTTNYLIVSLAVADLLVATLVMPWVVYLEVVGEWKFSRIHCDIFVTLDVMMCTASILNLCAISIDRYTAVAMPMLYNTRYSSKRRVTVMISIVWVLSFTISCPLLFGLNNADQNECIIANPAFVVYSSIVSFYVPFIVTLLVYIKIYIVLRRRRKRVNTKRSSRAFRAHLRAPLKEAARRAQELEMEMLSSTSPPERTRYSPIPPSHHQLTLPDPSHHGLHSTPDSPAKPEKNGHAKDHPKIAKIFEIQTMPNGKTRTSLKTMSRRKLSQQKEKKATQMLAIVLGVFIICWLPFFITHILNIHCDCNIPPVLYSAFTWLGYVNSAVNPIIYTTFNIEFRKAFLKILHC
CYP2C8, sequence (P10632 whole entry): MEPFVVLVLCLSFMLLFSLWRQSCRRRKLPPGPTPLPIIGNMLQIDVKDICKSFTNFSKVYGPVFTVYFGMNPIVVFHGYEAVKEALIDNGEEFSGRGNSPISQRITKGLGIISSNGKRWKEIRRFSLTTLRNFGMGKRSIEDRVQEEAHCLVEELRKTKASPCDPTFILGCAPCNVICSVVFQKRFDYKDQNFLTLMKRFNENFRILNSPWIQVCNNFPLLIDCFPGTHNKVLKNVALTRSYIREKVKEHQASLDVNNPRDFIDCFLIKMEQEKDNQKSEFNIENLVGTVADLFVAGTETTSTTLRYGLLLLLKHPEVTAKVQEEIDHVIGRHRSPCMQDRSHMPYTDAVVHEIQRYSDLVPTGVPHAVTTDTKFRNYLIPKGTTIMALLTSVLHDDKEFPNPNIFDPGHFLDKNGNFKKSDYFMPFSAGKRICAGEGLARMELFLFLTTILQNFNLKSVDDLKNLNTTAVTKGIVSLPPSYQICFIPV
Nicotinic Acetylcholine α3β4, sequence (P32297 32-505): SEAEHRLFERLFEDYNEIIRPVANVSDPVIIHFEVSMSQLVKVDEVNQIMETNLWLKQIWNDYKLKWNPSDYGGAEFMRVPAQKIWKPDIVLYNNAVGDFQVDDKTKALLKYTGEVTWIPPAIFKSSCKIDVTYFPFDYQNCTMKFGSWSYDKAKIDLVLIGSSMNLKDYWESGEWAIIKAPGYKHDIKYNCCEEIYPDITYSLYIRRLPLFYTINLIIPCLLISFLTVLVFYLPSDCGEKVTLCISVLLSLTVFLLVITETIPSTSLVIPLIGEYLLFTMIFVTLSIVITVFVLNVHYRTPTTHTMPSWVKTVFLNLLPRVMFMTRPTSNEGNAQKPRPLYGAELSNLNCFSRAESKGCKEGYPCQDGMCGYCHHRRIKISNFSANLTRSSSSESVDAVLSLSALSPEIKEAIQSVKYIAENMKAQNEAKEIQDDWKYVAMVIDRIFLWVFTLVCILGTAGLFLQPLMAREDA
Nicotinic Acetylcholine α3β4, sequence (P30926 22-498): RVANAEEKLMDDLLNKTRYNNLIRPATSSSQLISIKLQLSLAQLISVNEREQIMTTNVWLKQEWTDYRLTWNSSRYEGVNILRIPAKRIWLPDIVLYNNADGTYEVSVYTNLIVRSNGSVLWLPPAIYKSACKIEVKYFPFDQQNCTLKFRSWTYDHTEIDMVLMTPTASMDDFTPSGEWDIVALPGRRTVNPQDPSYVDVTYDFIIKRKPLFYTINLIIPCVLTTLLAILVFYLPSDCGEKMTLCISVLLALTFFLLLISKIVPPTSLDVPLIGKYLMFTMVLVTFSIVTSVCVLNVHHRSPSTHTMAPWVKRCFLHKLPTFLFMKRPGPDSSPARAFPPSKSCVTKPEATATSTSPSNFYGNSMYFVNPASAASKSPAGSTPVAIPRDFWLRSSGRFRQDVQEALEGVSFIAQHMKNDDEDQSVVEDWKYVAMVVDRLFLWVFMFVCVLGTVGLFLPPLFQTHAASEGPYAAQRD
Serotonin (5-Hydroxytryptamine) 5-HT2B, sequence (P41595 whole entry): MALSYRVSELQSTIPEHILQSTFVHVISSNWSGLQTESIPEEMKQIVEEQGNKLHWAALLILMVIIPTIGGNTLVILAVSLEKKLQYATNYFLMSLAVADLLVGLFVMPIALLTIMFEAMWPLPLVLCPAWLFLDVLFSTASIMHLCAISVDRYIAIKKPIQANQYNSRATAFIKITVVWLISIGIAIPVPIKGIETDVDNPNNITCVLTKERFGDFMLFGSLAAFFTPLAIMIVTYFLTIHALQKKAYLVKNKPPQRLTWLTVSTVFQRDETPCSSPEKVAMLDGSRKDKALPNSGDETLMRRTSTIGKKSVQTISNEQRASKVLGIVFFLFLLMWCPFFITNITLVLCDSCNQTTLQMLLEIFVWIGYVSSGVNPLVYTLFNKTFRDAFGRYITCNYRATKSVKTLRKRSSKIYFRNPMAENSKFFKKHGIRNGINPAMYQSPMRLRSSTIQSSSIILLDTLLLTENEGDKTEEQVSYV
Norepinephrine (NET), sequence (P23975 whole entry): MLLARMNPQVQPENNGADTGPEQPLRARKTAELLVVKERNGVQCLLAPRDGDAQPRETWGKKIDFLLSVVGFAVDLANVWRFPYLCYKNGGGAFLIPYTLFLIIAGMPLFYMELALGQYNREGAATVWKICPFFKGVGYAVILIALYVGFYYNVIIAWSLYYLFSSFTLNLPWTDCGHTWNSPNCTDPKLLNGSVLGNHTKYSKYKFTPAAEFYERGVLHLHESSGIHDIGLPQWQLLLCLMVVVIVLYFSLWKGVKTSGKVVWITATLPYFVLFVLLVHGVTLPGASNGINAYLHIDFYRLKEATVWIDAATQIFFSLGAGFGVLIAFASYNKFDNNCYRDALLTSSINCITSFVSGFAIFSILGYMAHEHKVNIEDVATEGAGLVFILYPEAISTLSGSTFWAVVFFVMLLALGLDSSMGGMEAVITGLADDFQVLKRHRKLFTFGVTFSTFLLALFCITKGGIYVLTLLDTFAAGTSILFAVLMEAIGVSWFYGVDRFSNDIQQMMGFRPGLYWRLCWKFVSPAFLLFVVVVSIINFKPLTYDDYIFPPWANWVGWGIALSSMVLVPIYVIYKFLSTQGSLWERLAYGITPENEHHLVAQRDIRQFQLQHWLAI
Sigma σ1, sequence (Q99720 whole entry): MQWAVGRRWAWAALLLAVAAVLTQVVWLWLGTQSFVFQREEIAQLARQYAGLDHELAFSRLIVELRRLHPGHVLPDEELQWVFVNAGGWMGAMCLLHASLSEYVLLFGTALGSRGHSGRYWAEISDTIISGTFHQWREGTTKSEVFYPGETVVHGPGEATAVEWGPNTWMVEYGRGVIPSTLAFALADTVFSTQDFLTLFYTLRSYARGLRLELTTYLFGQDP
CYP3A4, sequence (P08684 whole entry): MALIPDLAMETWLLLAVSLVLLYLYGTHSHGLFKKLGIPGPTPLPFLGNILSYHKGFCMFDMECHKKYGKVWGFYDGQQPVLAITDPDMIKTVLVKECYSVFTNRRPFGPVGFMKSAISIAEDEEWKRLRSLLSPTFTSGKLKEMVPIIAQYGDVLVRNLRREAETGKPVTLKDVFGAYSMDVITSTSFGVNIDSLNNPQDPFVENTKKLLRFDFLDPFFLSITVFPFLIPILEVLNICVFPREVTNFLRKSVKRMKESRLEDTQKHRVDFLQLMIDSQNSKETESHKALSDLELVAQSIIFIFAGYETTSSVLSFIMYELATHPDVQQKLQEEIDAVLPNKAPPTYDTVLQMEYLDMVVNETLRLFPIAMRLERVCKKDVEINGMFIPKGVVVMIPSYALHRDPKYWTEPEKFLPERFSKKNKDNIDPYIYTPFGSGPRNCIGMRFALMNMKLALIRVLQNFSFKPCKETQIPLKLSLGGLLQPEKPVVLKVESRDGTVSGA
Cannabinoid CB1, sequence (P21554 whole entry): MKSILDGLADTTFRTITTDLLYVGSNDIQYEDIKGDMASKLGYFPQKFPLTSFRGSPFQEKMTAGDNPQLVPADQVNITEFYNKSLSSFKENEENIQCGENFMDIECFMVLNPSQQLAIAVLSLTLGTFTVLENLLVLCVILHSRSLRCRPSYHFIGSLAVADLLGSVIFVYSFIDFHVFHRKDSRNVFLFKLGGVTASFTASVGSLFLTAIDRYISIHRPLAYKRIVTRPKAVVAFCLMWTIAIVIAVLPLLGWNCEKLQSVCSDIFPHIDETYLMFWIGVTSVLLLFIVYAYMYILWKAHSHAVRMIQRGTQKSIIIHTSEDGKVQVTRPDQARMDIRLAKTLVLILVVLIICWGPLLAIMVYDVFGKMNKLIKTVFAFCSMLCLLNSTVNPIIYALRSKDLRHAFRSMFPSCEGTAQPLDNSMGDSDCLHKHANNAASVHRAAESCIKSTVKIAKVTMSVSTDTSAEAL
Muscarinic M2, sequence (P08172 whole entry): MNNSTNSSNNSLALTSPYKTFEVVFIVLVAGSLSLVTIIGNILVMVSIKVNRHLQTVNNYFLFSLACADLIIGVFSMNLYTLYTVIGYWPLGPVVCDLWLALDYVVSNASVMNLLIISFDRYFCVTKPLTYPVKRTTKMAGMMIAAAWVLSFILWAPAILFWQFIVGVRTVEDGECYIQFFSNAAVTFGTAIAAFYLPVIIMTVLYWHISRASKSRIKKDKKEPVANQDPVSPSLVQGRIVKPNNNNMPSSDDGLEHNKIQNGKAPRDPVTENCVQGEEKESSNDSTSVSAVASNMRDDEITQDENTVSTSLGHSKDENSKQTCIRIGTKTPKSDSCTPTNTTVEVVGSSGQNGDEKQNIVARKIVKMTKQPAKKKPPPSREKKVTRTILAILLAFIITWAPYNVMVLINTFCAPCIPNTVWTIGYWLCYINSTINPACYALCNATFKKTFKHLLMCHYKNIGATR
Adenosine A1, sequence (P30542 whole entry): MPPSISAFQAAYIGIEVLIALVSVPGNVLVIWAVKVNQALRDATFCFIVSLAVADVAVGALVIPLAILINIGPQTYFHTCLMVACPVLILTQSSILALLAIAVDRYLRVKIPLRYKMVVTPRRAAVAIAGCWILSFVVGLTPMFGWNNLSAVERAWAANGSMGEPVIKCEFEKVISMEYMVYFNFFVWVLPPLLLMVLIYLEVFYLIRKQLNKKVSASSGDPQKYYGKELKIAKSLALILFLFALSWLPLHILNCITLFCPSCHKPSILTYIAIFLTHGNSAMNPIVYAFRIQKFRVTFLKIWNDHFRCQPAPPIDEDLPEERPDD

CC(=O)c1ccccn1 [2AP, 2-acetyl pyridine]
inhibition (Adrenergic β2): 5%
inhibition at 10 µM (Adrenergic α1B): 2%
inhibition at 10 µM (Histamine H1): 8%
inhibition at 10 µM (CYP2C19): 3%
inhibitory effect on an additional 28 receptors (28 receptors): no inhibitory effect
% Inhibition (GABAA Flunitrazepam): -2%
inhibition at 10 µM (Adrenergic α2A): -5%
inhibition (Cannabinoid CB1): -1%
% Inhibition (Sodium Channel, Site 2): 13%
% Inhibition (Potassium Channel [KATP]): -11%
inhibition at 10 µM (CYP2D6): 2%
inhibition at 10 µM [1]: -2%
pulmonary fibrosis [2]: attenuate bleomycin-induced pulmonary fibrosis
inhibition at 10 µM (Prostanoid EP4): 7%
inhibition at 10 µM (CYP2C9): 1%
% Inhibition [3]: 7%
inhibition at 10 µM (CYP3A4): -2%
inhibition [4]: 5%
inhibition at 10 µM (hERG potassium channel): 4%
% Inhibition (Imidazoline I2, Central): 3%
inhibition at 10 µM (Adrenergic α1A): 5%
inhibition at 10 µM (Adenosine A2A): 0%
inhibition (Dopamine D2S): -4%
inhibition (Opiate μ (OP3, MOP)): 0%
inhibition at 10 µM (Aromatase / CYP19A1): 1%
% Inhibition (Glutamate): 27%
inhibition at 10 µM (Adrenergic β1): 3%
inhibition at 10 µM (CYP2B6): 0%
IC50 (human recombinant NEU3; human recombinant NEU3, pH 6.9, read-out: IC50, inhibition of release of active TGF-β1 from human latent TGF-β1): 0.04 ± 0.006 µM
inhibition at 10 µM (Norepinephrine (NET)): 7%
inhibition at 10 µM [5]: 12%
inhibition at 10 µM (CYP2C8): 0%
inhibition (Dopamine D1): -5%
inhibition at 10 µM (Sigma σ1): 13%
inhibition at 10 µM (CYP1A2): 3%
toxic effects of daily injections ([6]; 1 mg/kg 2AP i.p. daily, days 21-42): did not appear to have any obvious toxic effects
body weight, CCl4-induced weight loss ([6]; CCl4+2AP vs CCl4, female mice): response of female mice to 2AP treatment
body weight, CCl4-induced weight loss ([6]; CCl4+2AP vs CCl4, male and female combined, days 39 and 40): less weight loss
body weight, CCl4-induced weight loss ([6]; CCl4+2AP vs CCl4, male mice): not apparent in male mice
number of S100A8/MRP8 positive cells (neutrophils) in liver ([6]; CCl4+2AP vs CCl4, female mice): reduction in the number of S100A8/MRP8 positive cells
liver NEU3 staining [6, 10]: attenuated the CCl4-induced NEU3 staining
liver desialylation, PNA lectin staining [6, 10]: reduced PNA staining
liver fibrosis, picrosirius red staining [6, 10]: decreased picrosirius red staining
liver inflammation, vessels with accumulation of immune cells (H&E) [6, 10]: attenuated the CCl4 induced inflammation
number of Mac2 positive cells around liver vessels [6, 10]: decreased the number of Mac2 positive cells in the vessel areas
number of Mac2 positive cells in liver [6, 10]: decreased the number of Mac2 positive cells
steatosis, oil red O staining of liver [6, 10]: no significant differences in oil red O staining
liver hydroxyproline levels ([6]; CCl4+2AP vs CCl4, male mice): reduced hydroxyproline levels
kidney, spleen, heart, or brown fat weights at day 42 ([6]; mouse, in vivo): no significant effect
liver NEU3 staining ([6]; mouse, in vivo): no significant differences in NEU3 staining
liver desialylation, PNA lectin staining ([6]; mouse, in vivo): did not significantly change PNA staining
liver hydroxyproline levels ([6]; mouse, in vivo): no significant differences in hydroxyproline levels
liver weight at day 42 ([6]; mouse, in vivo): higher liver weights
lung weight at day 42 ([6]; mouse, in vivo): increased lung weights
number of Mac2 positive cells around liver vessels ([6]; mouse, in vivo): no significant differences in the number of Mac2 positive cells in vessel areas
number of Mac2 positive cells in liver ([6]; mouse, in vivo): no significant differences in the number of Mac2 positive cells
number of S100A8 positive cells in liver ([6]; mouse, in vivo): no significant differences in the number of S100A8 positive cells
overt effects on mice (body weight over 42 days) ([6]; mouse, in vivo): no overt effects on the mice
steatosis, oil red O staining of liver ([6]; mouse, in vivo): no significant change in the oil red O staining
white fat weight at day 42 ([6]; mouse, in vivo): reduced white fat
number of CD3 T cells in liver [6, 11]: no significant treatment-induced difference
number of CLEC4F positive Kupffer cells in liver [6, 11]: no significant treatment-induced difference
number of Mac2 positive cells in parenchymal areas of the liver ([6]; treatments vs control mice): no significant treatment-induced difference
inhibition at 10 µM (Muscarinic M3): 1%
inhibition at 10 µM [7]: 1.5 ± 1.2%
inhibition (Adenosine A1): 10%
% Inhibition (GABAA Muscimol): 4%
inhibition (Muscarinic M2): 4%
IC50 (mouse recombinant NEU3): 0.8 ± 0.17 µM

CC(=O)N[C@H]1[C@H]([C@H](O)[C@H](O)CO)OC(C(=O)O)=C[C@@H]1O [DANA, N-acetyl-2,3-dehydro-2-deoxyneuraminic acid]
HFD induced weight gain and steatosis [8]: inhibited HFD induced weight gain and steatosis
HFD-induced liver inflammation ([8]; male mice): attenuate high fat diet (HFD)-induced liver inflammation
desialylation in lung fibrosis [2]: reversed desialylation in lung fibrosis
pulmonary fibrosis [2]: attenuate bleomycin-induced pulmonary fibrosis
MCD diet-induced liver fibrosis [9]: inhibits methionine and choline-deficient (MCD) diet-induced liver fibrosis
IC50 (human recombinant NEU3; NEU3 species not specified for DANA, read-out: inhibition of active TGF-β1 release): > 100 µM
